{
  "source": "patent US11878276B2",
  "about": "“Nanobiocatalyst and nanobiocatalytic membrane” (University of Vermont and State Agricultural College, priority 2017, dated 2024)",
  "test_system": "Gram positive and Gram negative bacteria",
  "assay": "minimum inhibitory concentration of bismuth",
  "format": "cell-based",
  "protocol": "In particular, in one embodiment, antimicrobial lipophilic bismuth dimercaptopropanol nanoparticles (BisBAL NPs) may be used. In one embodiment, the bismuth concentration on the membrane surface may be approximately 0.437 g/m^2. In one embodiment, the toxic range of Bi^+3 concentration (minimum inhibitory concentration) for Gram positive and Gram negative bacteria is 15-16 μM. […] In one embodiment, the bismuth nanoparticles are roughly spherical and are approximately 20 nm wide. […] In another embodiment, other antibacterial nanoparticles are also contemplated, such as, but not limited to Zinc Oxide (ZnO), Copper Oxide (CuO), Iron Oxide (Fe2O3), and Silver (Ag).",
  "data": [
    {"smiles": "[Bi+3]", "note": "[Bi^+3]", "values": [
      {"measurement": "toxic range of Bi^+3 concentration (minimum inhibitory concentration)", "value": "15 to 16", "unit": "µM"}
    ]}
  ]
}
